From patent US20220362394A1, “ANTI-BCMA ANTIBODY CONJUGATES” (SUTRO BIOPHARMA, INC., priority 2019, published 2022)

System: MM.1S multiple myeloma cells
Assay: Disseminated MM.1S multiple myeloma model
Format: in vivo, NSG mice
Conditions: Example 11
Method: Female NOD severe combined immune deficient (SCID) gamma (NSG) mice 8-9 weeks of age were inoculated with 5×10^6 multiple myeloma MM.1S cells into the tail vein. Randomization by body weight and start of treatment was initiated 7 days post tumor inoculation. The treatment groups are outlined in Table 18. All investigational test articles were formulated in 10 mM citrate pH 6.0, 10% sucrose. Groups 1-10 (n=6/group) were monitored for survival endpoint characterized by >20% body weight loss and clinical signs including lethargy, hind limb paralysis or moribundity. Groups 11-20 (n=3/group) were used for bone marrow harvest and analysis of tumor burden on day 28 post tumor cell inoculation. For all groups, body weights were monitored 1-2×/week.
Tumor burden was assessed and quantified by detection of hCD138 positive (hCD138+) cells in the bone marrow. Bone marrow cells from mouse femur and tibia were pooled and assessed for human CD138+ expression using the Alexa Fluor 647 mouse anti-human CD138 clone MI15 (BD Biosciences #562097) according to the manufacturer's protocol. […] Data was analyzed using Flowjo (Tree Star, Inc., Ashland, Oreg.).
Mean survival, survival delay, and tumor burden, during and at the study endpoint, were analyzed using a one-way analysis of variance (ANOVA) with Dunnett's multiple comparison test. […]

Row | Compound | effect on survival compared to vehicle control (3 or 10 mg/kg single IP) | mean survival (0.8 mg/kg q7dx2 IP) [days]
1 | Daratumumab: MM standard of care agent, clinical grade | no significant effect on survival | 
2 | CC(C)C[C@H](NC(=O)[C@H](Cc1ccccc1)NC(=O)c1cnccn1)B(O)O [Velcade] |  | 40.6
